Entries after “also recorded” stand apart in the source; their conditions may differ.
What was measured:
[1] = molecular target: T1, serotonin transporters (SERT) (Homo sapiens, UniProt P31645); test: Brain SERT occupancy by PET with [11C]DASB tracer, Phase 1 single-dose study; format: in vivo; details: N = 3
T1 construct: from tissue; host or cells: living human brain (3 healthy adult male volunteers), PET with [11C]DASB
Excerpt: This study was a Phase 1, single-dose, randomized, open-label study using positron emission tomography (PET) and [^11C]DASB ([^11C]N,N-dimethyl-2-(2-amino-4-cyanophenylthio) benzylamine) as a PET tracer in 3 healthy, young, adult male volunteer subjects. Using PET imaging, uptake inhibitor effects may be measured based on the proportion of SERT sites blocked in the brain.
(§1) PET scans were done at baseline and at 2 and 7-hour post-dose via measurement of [^11C]DASB tracer binding. Periodic blood samples were collected for evaluation of (+)-1-(3,4-dichlorophenyl)-3-azabicyclo[3.1.0]hexane PK. Safety was monitored by clinical and laboratory evaluations, including vital signs, physical examination, clinical chemistry, hematology, urinalysis, and ECG.

[2] = tested on: patients with Major Depressive Disorder; test: Phase 2 six week double-blind placebo-controlled study in patients with Major Depressive Disorder; format: in vivo, human; details: for CGI-I in comparison to placebo (in words): MITT n=56, MMRM
Excerpt: Subjects were identified who were between the ages of 18-65 (inclusive), and met criteria for Major Depressive Disorder in accordance with the Diagnostic and Statistical manual of Mental Disorders-IV-TR and confirmed by the MINI International Neuropsychiatric Interview. […] They were also required to have a BMI≤35 and body weight>45 kg at the Screening Visit. […] Subjects were required to refrain from taking antidepressants, anticonvulsants including gabapentin and pregabalin, neuroleptics, MAO inhibitors, barbiturates, benzodiazepines, stimulants, antipsychotics, lithium, anxiolytics and beta blockers starting two weeks prior to the study and continuing until after the follow-up visit. Subjects were evaluated for safety parameters prior to and throughout the trial by a variety of measures including electrocardiogram, physical examination, vital signs and body weight, and clinical laboratory testing including a lipid panel, CBC with differential and urinalysis. […] Efficacy was determined by measuring the change from baseline in the Montgomery-Åsberg Depression Rating Scale (MADRS), the HAMD-17, the Clinical Global Impression Global Improvement Scale (CGI-1), the Clinical Global Impression-Severity scale (CGI-S) and the Derogatis Interview for Sexual Functioning Self-Report (DISF-SR). […] Comparisons between treatment groups based on MADRS (the primary efficacy parameter), […] and CGI-S scores were analyzed using a mixed-repeated measures (MMRM) analysis model including factors for Subject, Visit, Treatment Arm and Baseline value as a covariate. Adjusted least-squares means from these models are presented. Comparisons between groups were made at each post-baseline visit using model-based contrasts and adjusted degrees of freedom. For these analyses no explicit data imputations were made prior to the analysis. Response and remission categorical data were analyzed using chi-square tests. Inferential analyses of safety data were conducted with ANOVA models or chi-square tests. Two-tail alpha was set to 0.05. All analyses were conducted using SAS version 9.2.

[3] = Safety monitoring in Phase 1 single-dose PET study; format: in vivo, human; details: single oral dose of 150 mg
Excerpt: as §1

[4] = Plasma concentration in Phase 1 single-dose PET study; format: in vivo, human; details: ~7 h after single oral dose of 150 mg, N = 3
Excerpt: as §1

[5] = tested on: extracellular norepinephrine and dopamine in prefrontal cortex; details: Bymaster et al. 2002a; cited from earlier work
[6] = ~2 h after single oral dose of 150 mg
[7] = ~7 h after single oral dose of 150 mg
[8] = 100 mg, Visit 8, LOCF, Completers, 50% reduction or more of baseline total score
[9] = six week double-blind, MITT n=56, MMRM LS means

T1 sequence (P31645 whole entry): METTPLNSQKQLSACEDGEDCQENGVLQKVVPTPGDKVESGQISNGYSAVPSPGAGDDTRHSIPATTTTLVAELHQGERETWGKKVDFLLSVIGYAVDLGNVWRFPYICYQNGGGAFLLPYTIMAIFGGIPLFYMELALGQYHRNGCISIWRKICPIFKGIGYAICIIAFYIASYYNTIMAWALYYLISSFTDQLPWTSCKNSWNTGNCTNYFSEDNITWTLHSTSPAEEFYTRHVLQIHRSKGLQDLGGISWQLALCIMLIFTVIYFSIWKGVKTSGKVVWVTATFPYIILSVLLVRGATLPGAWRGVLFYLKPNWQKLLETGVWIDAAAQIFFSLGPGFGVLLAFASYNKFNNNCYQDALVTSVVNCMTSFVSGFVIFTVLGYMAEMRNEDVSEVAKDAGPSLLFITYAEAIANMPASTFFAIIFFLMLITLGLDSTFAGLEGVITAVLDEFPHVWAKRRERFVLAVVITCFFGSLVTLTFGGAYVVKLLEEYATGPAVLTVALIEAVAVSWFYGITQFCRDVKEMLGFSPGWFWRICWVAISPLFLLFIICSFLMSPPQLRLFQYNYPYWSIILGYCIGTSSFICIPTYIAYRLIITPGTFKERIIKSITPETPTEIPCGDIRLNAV

Structure (SMILES): Clc1ccc(C23CNCC2C3)cc1Cl (single isomer, unassigned; (+)) [(+)-1-(3,4-dichlorophenyl)-3-azabicyclo[3.1.0]hexane]
- Mean SERT Occupancy, Mean [1, 6]: approximately 48%
- Mean SERT Occupancy, Striatum [1, 6]: 48%
- Mean SERT Occupancy, Thalamus [1, 6]: 48%
- Mean SERT Occupancy, Striatum [1, 7]: 32%
- Mean SERT Occupancy, Thalamus [1, 7]: 33%
- tolerability ([2]; 50 mg/day then 100 mg/day): relatively well tolerated
- remission rates by CGI-S score of ≤2 compared to placebo (in words) ([2]; 100 mg, LOCF): significantly greater remission rates
- Response rate HAMD-17 [2, 8]: (11/20) 55.00%
- Response rate MADRS [2, 8]: (8/20) 40.00%
- Remission rate CGI-S ([2]; 100 mg, Visit 8, LOCF, Completers, CGI-S ≤ 2): (7/20) 35.00%
- Remission rate HAMD-17 ([2]; 100 mg, Visit 8, LOCF, Completers, HAMD-17 ≤ 7): (4/20) 20.00%
- Remission rate MADRS ([2]; 100 mg, Visit 8, LOCF, Completers, MADRS ≤ 12): (6/20) 30.00%
- anhedonia factor score of the MADRS compared to placebo (in words) ([2]; MITT n=56, MMRM LS means, listed as EB-1010): statistically significant improvement
- Anhedonia factor difference placebo vs drug ([2]; Visit 8, MMRM, MITT): 1.41
- CGI-I difference placebo vs drug ([2]; Visit 8, MMRM, MITT): 0.62
- CGI-S difference placebo vs drug ([2]; Visit 8, MMRM, MITT): 0.22
- HAMD-17 difference placebo vs drug ([2]; Visit 8, MMRM, MITT): 3.12
- MADRS difference placebo vs drug ([2]; Visit 8, MMRM, MITT): 3.83
- Anhedonia factor (LS Mean − SE) ([2]; Visit 8, MMRM, MITT, n = 30): 7.92 (0.50)
- CGI-I (LS Mean − SE) ([2]; Visit 8, MMRM, MITT, n = 30): 2.13 (0.20)
- CGI-S (LS Mean − SE) ([2]; Visit 8, MMRM, MITT, n = 30): 3.31 (0.15)
- HAMD-17 (LS Mean − SE) ([2]; Visit 8, MMRM, MITT, n = 30): 14.90 (1.40)
- overall statistical effect size (Cohen's d), MADRS total score ([2]; Week 6, vs placebo): −0.63
- discontinuation due to AEs ([2]; compared with placebo): Two patients in each treatment group discontinued the study early due to AEs
- heart rate, systolic or diastolic blood pressure compared to placebo ([2]; human, in vivo): did not result in significant increases
- serious AEs ([2]; human, in vivo): no serious AEs were reported
- weight gain ([2]; human, in vivo): not associated with significant weight gain
- percentage of patients who reported an adverse treatment event ([2]; placebo 39.28%): 30.30%
- CGI-I in comparison to placebo (in words) ([2]; six week double-blind): statistically significantly superior to placebo
- CGI-S in comparison to placebo (in words) [2, 9]: improvement
- HAM-D in comparison to placebo (in words) [2, 9]: decrease
- MADRS total score in comparison to placebo (in words) [2, 9]: statistically significantly superior
- MADRS total score in comparison to placebo (in words) ([2]; six week double-blind, MITT n=56, MMRM LS means, listed as EB-1010): decrease
- CGI-I in comparison to placebo (in words) ([2]; six week double-blind, listed as EB-1010): decrease
- efficacy in treating depression (in words) ([2]; titrated dose of 50 mg/day then 100 mg/day): effective for treatment of patients with MDD; also recorded: efficacious in treating depression
- discontinuation due to a clinical or laboratory adverse experience [3]: no subjects were discontinued
- laboratory safety tests [3]: no clinically meaningful changes
- physical examinations and ECGs [3]: no clinically meaningful changes from pre-dose evaluations
- vital sign measurements (blood pressure, pulse rate, respiratory rate, oral temperature) [3]: No dose-related changes
- serious adverse events ([3]; 3 healthy male subjects): No serious adverse events were reported
- total adverse events reported by one subject ([3]; rated definitely not related to study drug): 5
- Mean Plasma Concentration [4]: ~405 ng/mL

Structure (SMILES): CNCC[C@@H](Oc1ccccc1C)c1ccccc1 [atomoxetine]
- extracellular norepinephrine and dopamine concentrations in prefrontal cortex [5]: increased extracellular norepinephrine and dopamine concentrations
